How the values were obtained:
Assay type in all cases: in vivo
[1] = tested on: ragweed (common ragweed, Ambrosia elatior); experiment: Test A postemergence, ragweed; conditions: 0 to 100 scale; for Plant response rating, Ragweed: 125 g ai/ha, 0 no effect, 100 complete control; for Ragweed plant response rating: 500 g ai/ha, 0 is no effect, 100 is complete control
Method in brief: (§1)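 Steps: plant seeds in loam/sand; spray soil (pre) or seedlings at 1–2 leaves, 2–10 cm (post) with compound in solvent plus surfactant; keep in greenhouse ~10 d; score injury visually against untreated controls, 0–100.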

[2] = tested on: barnyardgrass (Echinochloa crus-galli); experiment: Test A postemergence, barnyardgrass; conditions: 0 to 100 scale; for Plant response rating, Barnyardgrass: 125 g ai/ha, 0 no effect, 100 complete control; for Barnyardgrass plant response rating: 500 g ai/ha, 0 is no effect, 100 is complete control
Method in brief: as §1

[3] = tested on: barnyardgrass (Echinochloa crus-galli); experiment: Test B flooded paddy test, barnyardgrass; conditions: Flood, 250 g ai/ha, applied to paddy water, 2-leaf stage, visual evaluation after 13 to 15 d
Method in brief: (§2)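 Each response is a visual 0–100 rating made against untreated controls, where 0 is no effect and 100 is complete control; a dash marks no result. Compound was dosed into 3 cm paddy water over 2-leaf plants, assessed after 13 to 15 d.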

[4] = tested on: foxtail, giant (Setaria faberii); experiment: Test A postemergence, giant foxtail; conditions: 0 to 100 scale; for Plant response rating, Foxtail, Giant: 125 g ai/ha, 0 no effect, 100 complete control; for Foxtail, Giant plant response rating: 500 g ai/ha, 0 is no effect, 100 is complete control
Method in brief: as §1

[5] = tested on: ducksalad (Heteranthera limosa); experiment: Test B flooded paddy test, ducksalad; conditions: Flood, 250 g ai/ha, applied to paddy water, 2-leaf stage, visual evaluation after 13 to 15 d
Method in brief: as §2

[6] = tested on: blackgrass (Alopecurus myosuroides); experiment: Test A postemergence, blackgrass; conditions: 0 to 100 scale; for Plant response rating, Blackgrass: 125 g ai/ha, 0 no effect, 100 complete control; for Blackgrass plant response rating: 500 g ai/ha, 0 is no effect, 100 is complete control
Method in brief: as §1

[7] = tested on: pigweed (Amaranthus retroflexus); experiment: Test A preemergence, pigweed; conditions: 0 to 100 scale, 0 is no effect, 100 is complete control
Method in brief: as §1

[8] = tested on: ragweed (common ragweed, Ambrosia elatior); experiment: Test A preemergence, ragweed; conditions: 0 to 100 scale, 0 is no effect, 100 is complete control
Method in brief: as §1

[9] = tested on: foxtail, giant (Setaria faberii); experiment: Test A preemergence, giant foxtail; conditions: 0 to 100 scale, 0 is no effect, 100 is complete control
Method in brief: as §1

[10] = tested on: barnyardgrass (Echinochloa crus-galli); experiment: Test A preemergence, barnyardgrass; conditions: 0 to 100 scale, 0 is no effect, 100 is complete control
Method in brief: as §1

[11] = tested on: ryegrass, Italian (Lolium multiflorum); experiment: Test A preemergence, Italian ryegrass; conditions: 0 to 100 scale, 0 is no effect, 100 is complete control
Method in brief: as §1

[12] = tested on: pigweed (Amaranthus retroflexus); experiment: Test A postemergence, pigweed; conditions: 0 to 100 scale; for Plant response rating, Pigweed: 125 g ai/ha, 0 no effect, 100 complete control; for Pigweed plant response rating: 500 g ai/ha, 0 is no effect, 100 is complete control
Method in brief: as §1

[13] = tested on: sedge, umbrella (small-flower umbrella sedge, Cyperus difformis); experiment: Test B flooded paddy test, umbrella sedge; conditions: Flood, 250 g ai/ha, applied to paddy water, 2-leaf stage, visual evaluation after 13 to 15 d
Method in brief: as §2

rice (Oryza sativa) = experiment: Test B flooded paddy test, rice; conditions: Flood, 250 g ai/ha, applied to paddy water, 2-leaf stage, visual evaluation after 13 to 15 d
Method in brief: as §2

[14] = tested on: ryegrass, Italian (Lolium multiflorum); experiment: Test A postemergence, Italian ryegrass; conditions: 0 to 100 scale; for Plant response rating, Ryegrass, Italian: 125 g ai/ha, 0 no effect, 100 complete control; for Ryegrass, Italian plant response rating: 500 g ai/ha, 0 is no effect, 100 is complete control
Method in brief: as §1

corn (Zea mays) = experiment: Test A postemergence, corn; conditions: 0 to 100 scale; for Plant response rating, Corn: 125 g ai/ha, 0 no effect, 100 complete control; for Corn plant response rating: 500 g ai/ha, 0 is no effect, 100 is complete control
Method in brief: as §1

kochia (Kochia scoparia) [15] = experiment: Test A preemergence, kochia; conditions: 0 to 100 scale, 0 is no effect, 100 is complete control
Method in brief: as §1

[16] = tested on: wheat (Triticum aestivum); experiment: Test A postemergence, wheat; conditions: 0 to 100 scale; for Plant response rating, Wheat: 125 g ai/ha, 0 no effect, 100 complete control; for Wheat plant response rating: 500 g ai/ha, 0 is no effect, 100 is complete control
Method in brief: as §1

kochia (Kochia scoparia) [17] = experiment: Test A postemergence, kochia; conditions: 0 to 100 scale; for Plant response rating, Kochia: 125 g ai/ha, 0 no effect, 100 complete control; for Kochia plant response rating: 500 g ai/ha, 0 is no effect, 100 is complete control
Method in brief: as §1

[18] = tested on: galium (catchweed bedstraw, Galium aparine); experiment: Test A postemergence, galium; conditions: 0 to 100 scale; for Plant response rating, Galium: 125 g ai/ha, 0 no effect, 100 complete control; for Galium plant response rating: 500 g ai/ha, 0 is no effect, 100 is complete control
Method in brief: as §1

Compound | Plant response rating, Ragweed [1] | Ragweed plant response rating [1] | Plant response rating, Barnyardgrass [2] | Barnyardgrass plant response rating [2] | Plant response rating, Barnyardgrass (0 to 100 scale, 0 is no effect, 100 is complete control) [3] | Plant response rating, Foxtail, Giant [4] | Foxtail, Giant plant response rating [4] | Plant response rating, Ducksalad (0 to 100 scale, 0 is no effect, 100 is complete control) [5] | Plant response rating, Blackgrass [6] | Blackgrass plant response rating [6] | Pigweed plant response rating ([7]; 125 g ai/ha) | Pigweed plant response rating ([7]; 500 g ai/ha) | Ragweed plant response rating ([8]; 125 g ai/ha) | Ragweed plant response rating ([8]; 500 g ai/ha) | Foxtail, Giant plant response rating ([9]; 125 g ai/ha) | Foxtail, Giant plant response rating ([9]; 500 g ai/ha) | Barnyardgrass plant response rating ([10]; 125 g ai/ha) | Barnyardgrass plant response rating ([10]; 500 g ai/ha) | Ryegrass, Italian plant response rating ([11]; 125 g ai/ha) | Ryegrass, Italian plant response rating ([11]; 500 g ai/ha) | other results
CC[C@@H](Nc1ncc(C(F)(F)F)c(N)n1)c1cc2ccc(F)cc2s1 [Compound 48] | 20 | 70 | 0 | 30 | 0 | 10 | 30 | 0 | 30 | 30 | 60 | 100 | 30 | 100 | 60 | 90 | 0 | 40 | 0 | 60 | Plant response rating, Pigweed [12]: 90; Pigweed plant response rating [12]: 100; Plant response rating, Sedge, Umbrella (0 to 100 scale, 0 is no effect, 100 is complete control) [13]: 0; Plant response rating, Rice (0 to 100 scale, 0 is no effect, 100 is complete control) (rice (Oryza sativa)): 0; Plant response rating, Ryegrass, Italian [14]: 0; Ryegrass, Italian plant response rating [14]: 40; Plant response rating, Corn (corn (Zea mays)): 0; Corn plant response rating (corn (Zea mays)): 30; Kochia plant response rating (kochia (Kochia scoparia) [15]; 125 g ai/ha): 0; Kochia plant response rating (kochia (Kochia scoparia) [15]; 500 g ai/ha): 80; Plant response rating, Wheat [16]: 0; Wheat plant response rating [16]: 0; Plant response rating, Kochia (kochia (Kochia scoparia) [17]): 30; Kochia plant response rating (kochia (Kochia scoparia) [17]): 90; Plant response rating, Galium [18]: 60; Galium plant response rating [18]: 90
CC[C@@H](Nc1ncc(C(F)(F)F)c(N)n1)c1cc2ccccc2s1 [Compound 43] | 60 | 90 | 20 | 100 | 0 | 30 | 100 | 0 | 0 | 20 | 90 | 100 | 100 | 100 | 80 | 90 | 70 | 70 | 20 | 50 | Plant response rating, Pigweed [12]: 100; Pigweed plant response rating [12]: 100; Plant response rating, Sedge, Umbrella (0 to 100 scale, 0 is no effect, 100 is complete control) [13]: 0; Plant response rating, Rice (0 to 100 scale, 0 is no effect, 100 is complete control) (rice (Oryza sativa)): 0; Plant response rating, Ryegrass, Italian [14]: 40; Ryegrass, Italian plant response rating [14]: 40; Plant response rating, Corn (corn (Zea mays)): 0; Corn plant response rating (corn (Zea mays)): 20; Kochia plant response rating (kochia (Kochia scoparia) [15]; 125 g ai/ha): 90; Kochia plant response rating (kochia (Kochia scoparia) [15]; 500 g ai/ha): 100; Plant response rating, Wheat [16]: 0; Wheat plant response rating [16]: 0; Plant response rating, Kochia (kochia (Kochia scoparia) [17]): 90; Kochia plant response rating (kochia (Kochia scoparia) [17]): 90; Plant response rating, Galium [18]: 70; Galium plant response rating [18]: 90

Reference: patent US20220119354A1, “DIAMINO-SUBSTITUTED PYRIDINES AND PYRIMIDINES AS HERBICIDES” (FMC Corporation, priority 2019, published 2022)
